Assay results: patent US9609868B2, “Alkoximino-substituted anthranilic acid diamides as pesticides” (BAYER CROPSCIENCE AKTIENGESELLSCHAFT, priority 2013, dated 2017)

How the values were obtained:
[1] = log P by HPLC on reversed-phase column (C18), EEC directive 79/831 Annex V.A8; assay type: physicochemical; settings: HPLC reversed-phase C18, 43° C., data refer to the E isomer
Experimental: The log P values reported in the tables and Preparation Examples above were determined in accordance with EEC directive 79/831 Annex V.A8 by HPLC (High Performance Liquid Chromatography) using a reversed-phase column (C18). Temperature 43° C. The calibration is effected with unbranched alkan-2-ones (having 3 to 16 carbon atoms), for which the log P values are known.

[2] = test system: Boophilus microplus; experiment: Boophilus microplus - injection test (BOOPMI Inj); assay type: in vivo; settings: application rate 20 μg/animal, injection into engorged adult female cattle ticks
Experimental: Boophilus microplus—Injection Test (BOOPMI Inj)
(§1) Solvent: dimethyl sulfoxide
To produce a suitable preparation of active compound, 10 mg of active compound are mixed with 0.5 ml of solvent and the concentrate is diluted with solvent to the desired concentration.
1 μl of the active compound solution is injected into the abdomen of 5 engorged adult female cattle ticks (Boophilus microplus). The animals are transferred into dishes and kept in a climate-controlled room.
The activity is assessed after the desired time by laying of fertile eggs. Eggs which are not visibly fertile are stored in a climate-controlled cabinet until the larvae hatch after about 42 days. An efficacy of 100% means that none of the ticks has laid any fertile eggs; 0% means that all the eggs are fertile.

[3] = test system: Lucilia cuprina; experiment: Lucilia cuprina test (LUCICU); assay type: in vivo; settings: application rate 100 ppm
Experimental: Lucilia cuprina-Test (LUCICU)
as §1
(§2) To produce a suitable preparation of active compound, 10 mg of active compound are mixed with 0.5 ml of dimethyl sulfoxide, and the concentrate is diluted with water to the desired concentration.
About 20 L1 larvae of the Australian sheep blowfly (Lucilia cuprina) are transferred into a test vessel containing minced horsemeat and the active compound preparation of the desired concentration.
After the desired time, the kill in % is determined. 100% means that all the larvae have been killed; 0% means that no larvae have been killed.

[4] = test system: Musca domestica; experiment: Musca domestica test (MUSCDO); assay type: in vivo
Experimental: Musca domestica-Test (MUSCDO)
as §1, §2
Vessels containing a sponge treated with sugar solution and the active compound preparation of the desired concentration are populated with 10 adult houseflies (Musca domestica).
After the desired time, the kill in % is determined. 100% means that all of the flies have been killed; 0% means that none of the flies have been killed.

[5] = test system: Myzus persicae; experiment: Myzus persicae - spray test (MYZUPE); assay type: in vivo; settings: application rate 100 g/ha, Chinese cabbage leaf disks
Summary of the method: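 Chinese cabbage leaf disks carrying all stages of green peach aphid were sprayed with compound in acetone/DMF with emulsifier, diluted in water. After the chosen period, efficacy was scored as % aphids killed.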

[6] = test system: Phaedon cochleariae; experiment: Phaedon cochleariae - spray test (PHAECO); assay type: in vivo; settings: application rate 100 g/ha, Chinese cabbage leaf disks
Summary of the method: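 Active compound in acetone/dimethylformamide with alkylaryl polyglycol ether emulsifier was diluted with emulsifier-containing water to the test concentration and sprayed. After the set period, efficacy was scored as % larvae killed (100% = all beetle larvae dead, 0% = none).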

[7] = test system: Spodoptera frugiperda; experiment: Spodoptera frugiperda - spray test (SPODFR); assay type: in vivo; settings: application rate 100 g/ha, maize leaf disks
Summary of the method: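 Maize leaf disks sprayed with compound in acetone/DMF with alkylaryl polyglycol ether emulsifier, diluted in water to test concentration, then infested with armyworm caterpillars once dry. Efficacy given as % caterpillars killed (100% all, 0% none) after the chosen period.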

[8] = test system: Tetranychus urticae; experiment: Tetranychus urticae - spray test, OP-resistant (TETRUR); assay type: in vivo; settings: application rate 100 g/ha, bean leaf disks
Experimental: Tetranychus urticae—Spray Test, OP-Resistant (TETRUR)
Solvent: 78.0 parts by weight of acetone • • 1.5 parts by weight of dimethylformamide
Emulsifier: 0.5 parts by weight of alkylaryl polyglycol ether
To produce a suitable active compound preparation, 1 part by weight of active compound is mixed with the stated amounts of solvent and emulsifier, and the concentrate is diluted with emulsifier-containing water to the desired concentration.
Disks of bean leaves (Phaseolus vulgaris) infested with all stages of the greenhouse red spider mite (Tetranychus urticae) are sprayed with an active compound preparation of the desired concentration.
After the desired period of time, the efficacy in % is determined. 100% means that all the spider mites have been killed; 0% means that none of the spider mites have been killed.

CON=Cc1cc(C)c(NC(=O)c2cc(C(F)F)nn2-c2ncccc2Cl)c(C(=O)NNC(=O)OC)c1 (mixture of isomers) [A-39]
log p ([1]; Table A): 2.26 | efficacy (no fertile eggs laid) [2]: 100% | efficacy (kill of L1 larvae) [3]: 100% | efficacy (kill of adult houseflies) ([4]; application rate 100 ppm): 80% | efficacy (aphids killed) [5]: 90% | efficacy (beetle larvae killed) [6]: 100% | efficacy (caterpillars killed) [7]: 100%

CON=Cc1cc(C)c(NC(=O)c2cc(C(F)F)nn2-c2ncccc2Cl)c(C(=O)NN(C)C(=O)OC)c1 (mixture of isomers) [A-41]
log p ([1]; Table A): 2.46 | efficacy (no fertile eggs laid) [2]: 100% | efficacy (kill of L1 larvae) [3]: 100% | efficacy (kill of adult houseflies) ([4]; application rate 100 ppm): 80% | efficacy (aphids killed) [5]: 90% | efficacy (beetle larvae killed) [6]: 100% | efficacy (caterpillars killed) [7]: 100%

CON=Cc1cc(C)c(NC(=O)c2cc(Br)nn2-c2ncccc2Cl)c(C(=O)NNC(=O)OC)c1 (mixture of isomers) [A-42]
log p ([1]; Table A): 2.38 | efficacy (no fertile eggs laid) [2]: 100% | efficacy (kill of L1 larvae) [3]: 100% | efficacy (kill of adult houseflies) ([4]; application rate 100 ppm): 80% | efficacy (aphids killed) [5]: 100% | efficacy (beetle larvae killed) [6]: 100% | efficacy (caterpillars killed) [7]: 100%

CCOC(=O)NNC(=O)c1cc(C=NOC)cc(C)c1NC(=O)c1cc(C(F)(F)F)nn1-c1ncccc1Cl [A-17]
log p ([1]; Table A): 2.92 | efficacy (no fertile eggs laid) [2]: 100% | efficacy (kill of L1 larvae) [3]: 100% | efficacy (kill of adult houseflies) ([4]; application rate 20 ppm): 80% | efficacy (aphids killed) [5]: 90% | efficacy (beetle larvae killed) [6]: 100% | efficacy (caterpillars killed) [7]: 100% | efficacy (spider mites killed) [8]: 90%

C#CCOC(=O)NNC(=O)c1cc(C=NOC)cc(C)c1NC(=O)c1cc(C(F)(F)F)nn1-c1ncccc1Cl [A-22]
log p ([1]; Table A): 2.86 | efficacy (no fertile eggs laid) [2]: 100% | efficacy (kill of L1 larvae) [3]: 100% | efficacy (kill of adult houseflies) ([4]; application rate 20 ppm): 100% | efficacy (aphids killed) [5]: 100% | efficacy (beetle larvae killed) [6]: 100% | efficacy (caterpillars killed) [7]: 100% | efficacy (spider mites killed) [8]: 100%

CON=Cc1cc(C)c(NC(=O)c2cc(OC)nn2-c2ncccc2Cl)c(C(=O)NC(C)C)c1 [C-24]
log p ([1]; Table C): 2.65 | efficacy (no fertile eggs laid) [2]: 100% | efficacy (kill of L1 larvae) [3]: 100% | efficacy (kill of adult houseflies) ([4]; application rate 100 ppm): 100% | efficacy (aphids killed) [5]: 100% | efficacy (beetle larvae killed) [6]: 100% | efficacy (caterpillars killed) [7]: 100%

CNC(=O)c1cc(C=NOC)cc(C)c1NC(=O)c1cc(C(F)F)nn1-c1ncccc1Cl [C-28]
log p ([1]; Table C): 2.48 | efficacy (no fertile eggs laid) [2]: 100% | efficacy (kill of L1 larvae) [3]: 100% | efficacy (kill of adult houseflies) ([4]; application rate 100 ppm): 80% | efficacy (aphids killed) [5]: 90% | efficacy (beetle larvae killed) [6]: 100% | efficacy (caterpillars killed) [7]: 100%

CON=Cc1cc(C)c(NC(=O)c2cc(C(F)F)nn2-c2ncccc2Cl)c(C(=O)NC(C)C)c1 [C-29]
log p ([1]; Table C): 2.98 | efficacy (no fertile eggs laid) [2]: 100% | efficacy (kill of L1 larvae) [3]: 100% | efficacy (kill of adult houseflies) ([4]; application rate 20 ppm): 100% | efficacy (aphids killed) [5]: 100% | efficacy (beetle larvae killed) [6]: 100% | efficacy (caterpillars killed) [7]: 100%

CON=Cc1cc(C)c(NC(=O)c2cc(CF)nn2-c2ncccc2Cl)c(C(=O)NC2CC2)c1 [C-42]
log p ([1]; Table C): 2.38 | efficacy (no fertile eggs laid) [2]: 100% | efficacy (kill of L1 larvae) [3]: 100% | efficacy (kill of adult houseflies) ([4]; application rate 100 ppm): 90% | efficacy (aphids killed) [5]: 90% | efficacy (beetle larvae killed) [6]: 100% | efficacy (caterpillars killed) [7]: 100% | efficacy (spider mites killed) [8]: 100%
